In BindingDB's records for doi:10.1016/S0960-894X(97)00083-8 (1997) one finds IC50 data, which are given here for 1 molecule.

In the experiment the target is Integrin alpha-IIb/beta-3 (Homo sapiens, UniProt P08514+P05106). As to the kind of experiment: ChEBML_215984.

The IC50 is the concentration that gives 50% inhibition.

Integrin alpha-IIb/beta-3, sequence (P05106 27-788 limits assumed): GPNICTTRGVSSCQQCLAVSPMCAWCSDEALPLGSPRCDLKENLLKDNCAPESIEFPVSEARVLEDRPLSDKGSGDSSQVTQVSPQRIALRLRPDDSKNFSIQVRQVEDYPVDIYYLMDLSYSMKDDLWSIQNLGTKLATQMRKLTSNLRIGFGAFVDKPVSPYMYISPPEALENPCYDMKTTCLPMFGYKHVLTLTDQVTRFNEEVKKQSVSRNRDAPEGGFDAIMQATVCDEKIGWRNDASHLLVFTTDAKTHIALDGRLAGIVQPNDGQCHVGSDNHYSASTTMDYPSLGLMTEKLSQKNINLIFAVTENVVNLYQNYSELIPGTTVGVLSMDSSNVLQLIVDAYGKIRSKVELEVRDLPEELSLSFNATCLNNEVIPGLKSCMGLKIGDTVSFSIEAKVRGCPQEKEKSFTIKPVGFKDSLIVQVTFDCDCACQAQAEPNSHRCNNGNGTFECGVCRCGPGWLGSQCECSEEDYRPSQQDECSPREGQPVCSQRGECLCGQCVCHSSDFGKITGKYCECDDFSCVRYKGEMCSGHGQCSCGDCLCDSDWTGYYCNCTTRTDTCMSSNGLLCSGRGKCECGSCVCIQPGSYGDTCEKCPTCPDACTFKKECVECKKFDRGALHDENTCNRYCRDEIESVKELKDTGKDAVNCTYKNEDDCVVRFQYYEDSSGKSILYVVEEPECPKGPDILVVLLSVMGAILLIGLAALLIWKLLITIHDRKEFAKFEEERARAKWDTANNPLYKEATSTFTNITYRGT
Integrin alpha-IIb/beta-3, sequence (P08514 32-887 limits assumed): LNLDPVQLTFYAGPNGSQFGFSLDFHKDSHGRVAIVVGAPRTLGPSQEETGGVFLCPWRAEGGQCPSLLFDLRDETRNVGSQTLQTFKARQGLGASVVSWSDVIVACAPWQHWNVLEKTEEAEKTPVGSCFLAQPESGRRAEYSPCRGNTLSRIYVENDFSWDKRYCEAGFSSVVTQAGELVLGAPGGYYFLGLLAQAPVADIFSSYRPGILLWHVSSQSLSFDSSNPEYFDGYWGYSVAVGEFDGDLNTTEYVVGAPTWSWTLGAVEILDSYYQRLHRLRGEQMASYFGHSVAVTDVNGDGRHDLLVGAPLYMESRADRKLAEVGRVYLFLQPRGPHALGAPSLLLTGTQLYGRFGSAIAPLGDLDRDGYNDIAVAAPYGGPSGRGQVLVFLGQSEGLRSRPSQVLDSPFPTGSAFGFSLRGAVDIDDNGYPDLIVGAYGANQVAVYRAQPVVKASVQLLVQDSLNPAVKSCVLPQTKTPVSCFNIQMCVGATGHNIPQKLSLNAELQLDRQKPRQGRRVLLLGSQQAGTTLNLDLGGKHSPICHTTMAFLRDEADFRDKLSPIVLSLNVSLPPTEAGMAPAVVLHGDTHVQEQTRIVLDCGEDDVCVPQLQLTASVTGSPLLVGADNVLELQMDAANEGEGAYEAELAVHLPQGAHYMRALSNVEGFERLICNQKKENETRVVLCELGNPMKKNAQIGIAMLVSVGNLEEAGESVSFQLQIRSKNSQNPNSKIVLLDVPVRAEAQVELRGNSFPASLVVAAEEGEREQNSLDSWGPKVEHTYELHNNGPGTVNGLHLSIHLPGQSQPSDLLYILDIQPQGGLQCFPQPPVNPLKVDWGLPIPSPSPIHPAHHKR
Integrin alpha-IIb/beta-3, sequence (P08514 891-1039 limits assumed): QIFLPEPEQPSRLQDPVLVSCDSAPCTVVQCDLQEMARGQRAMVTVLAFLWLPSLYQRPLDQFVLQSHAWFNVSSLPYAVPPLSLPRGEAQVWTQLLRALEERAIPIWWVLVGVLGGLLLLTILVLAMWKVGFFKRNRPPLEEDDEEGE

Molecule `CC(C)C1CN(C)C(CCCN=C(N)NC(=O)c2ccc(N=[N][Tc]345(=[P@SP2](c6ccc([S@TB1](=O)(=O)O)cc6)(c6ccccc6S(=O)(=O)O)c6ccccc6[S@TB1](=O)(=O)O)[O]CC[N]3C(CO)(C[O]4)C[O]5)nc2)C(=O)NCC(=O)NC(CC(=O)O)C(=O)NCc2cc(NC(=O)CCCCCN)cc(c2)C(=O)N1` (stereo unspecified) [RP-444] gave an IC50 of 13 nM. This counts as double-digit nanomolar.
